The results in this text go back to US11795147B2, “Modulators of complex I” (Boehringer Ingelheim International GmbH, priority 2019, dated 2023).

The target in this assay is Complex I. In words: Assay A: Determination of Complex I mediated ROS-inhibition (CI). It is filed as biochemical. Conditions: read-out: CI IC50; ROS generation by Complex I purified from bovine heart, Amplex Red/horse radish peroxidase readout, 8 point concentration-response.
What is called IC50 is the concentration at which inhibition is half-maximal. Take `CN(C)c1ccc2c(c1)/C(=C1\CCCN1)C(=O)N2C` [Compound 1]: the IC50 stood at 0.06 µM.

As for `CN(C)c1ccc2c(c1)/C(=C1\COCCN1)C(=O)N2C` [Compound 2], the half-maximal inhibitory concentration (IC50) was 0.08 µM.

In the case of `CC(C)Nc1ccc2c(c1)/C(=C1\COCCN1)C(=O)N2C1CCOCC1` [Compound 3], the IC50 stood at 0.077 µM.

Take `O=C1/C(=C2/COCCN2)c2cc(N3CCOCC3)ccc2N1C1CCOCC1` [Compound 4]: the IC50 was determined as 0.242 µM.

As for `CC(C)Nc1ccc2c(c1)/C(=C1\CN(C3COC3)CCN1)C(=O)N2C1CCOCC1` [Compound 5], the half-inhibitory concentration (IC50) is 0.081 µM.

Regarding `CC(C)Nc1ccc2c(c1)C(=C1CCOCC1)C(=O)N2C1CCOCC1` [Compound 6], the half-maximal inhibitory concentration (IC50) was 0.533 µM.

Turning to `CC(C)N1C(=O)C(=C2CCOCC2)c2cc(N3CCCC3)ccc21` [Compound 7], the IC50 worked out at 0.35 µM.

As to `CN1CCC/C1=C1/C(=O)N(C2CCOCC2)c2ccc(NC3CCC3)cc21` [Compound 9], the IC50 was 0.398 µM.

In the case of `CC(=O)N1CCN/C(=C2\C(=O)N(C3CCOCC3)c3ccc(N4CCCC4)cc32)CC1` [Compound 12], the IC50 turned out to be 0.194 µM.

With `O=C1/C(=C2/CCOCCN2)c2cc(NC3CCCC3)ccc2N1C1CCOCC1` [Compound 13], the half-inhibitory concentration (IC50) is 0.084 µM.

For `O=C1/C(=C2/COCCN2)c2cc(NC3CCC3)ccc2N1C1CCOC1` (stereo not drawn) [Compound 14], the concentration for half-maximal inhibition (IC50) came to 0.101 µM.

Take `CC(Nc1ccc2c(c1)/C(=C1\COCCN1)C(=O)N2C(C)C)c1cccnc1` (stereo not drawn) [Compound 15]: the IC50 amounted to 0.096 µM.

`COC1COCCC1Nc1ccc2c(c1)/C(=C1\COCCN1)C(=O)N2C(C)C` (stereo not drawn) [Compound 16]: the IC50 came out at 0.313 µM.

In the case of `CC(Nc1ccc2c(c1)/C(=C1\COCCN1)C(=O)N2C(C)C)c1ccnn1C` (stereo not drawn) [Compound 17], the concentration for half-maximal inhibition (IC50) came out at 0.022 µM.

In the case of `O=C1/C(=C2/COCCN2)c2cc(NC3CCOCC3)ccc2N1C1CCOCC1` [Compound 18], the IC50 was determined as 0.011 µM.

Turning to `CC(C)N1CCC(Nc2ccc3c(c2)/C(=C2\COCCN2)C(=O)N3C2CCOCC2)CC1` [Compound 19], the half-inhibitory concentration (IC50) came to 0.022 µM.

With `CC(Nc1ccc2c(c1)/C(=C1\COCCN1)C(=O)N2C1CCOCC1)C1CC1` (stereo not drawn) [Compound 20], the 50% inhibitory concentration (IC50) came to 0.073 µM.

For the molecule `O=C1/C(=C2/COCCN2)c2cc(NCc3cc[nH]n3)ccc2N1C1CCOCC1` [Compound 21], the IC50 was 0.108 µM.

Take `CC(C)N1C(=O)/C(=C2/CCOCCN2)c2cc(NC3CCC3)ccc21` [Compound 22]: the IC50 was 0.087 µM.

As for `CC(C)N1CCN/C(=C2\C(=O)N(C)c3ccc(N4CCCC4)cc32)C1` [Compound 23], the IC50 is 0.137 µM.

Regarding `CC(C)N1C(=O)C(=C2CCOCC2)c2cc(NC3CCC3)ccc21` [Compound 25], the concentration for half-maximal inhibition (IC50) turned out to be 0.707 µM.

Regarding `CC(C)Nc1ccc2c(c1)/C(=C1\COCCN1)C(=O)N2C1COCCOC1` [Compound 26], the 50% inhibitory concentration (IC50) stood at 0.02 µM.

On to `CC(C)C(C)Nc1ccc2c(c1)/C(=C1\COCCN1)C(=O)N2C1COCCOC1` (stereo not drawn) [Compound 27], for which the IC50 came out at 0.162 µM.

In the case of `COCC(C)N1C(=O)/C(=C2/COCCN2)c2cc(NC(C)C)ccc21` (stereo not drawn) [Compound 28], the IC50 is 0.069 µM.

On to `CC1CCC(C)N1c1ccc2c(c1)/C(=C1\CCOCCN1)C(=O)N2C1CCOCC1` (stereo not drawn) [Compound 29], for which the half-maximal inhibitory concentration (IC50) was found to be 0.132 µM.

On to `CC(C)Nc1ccc2c(c1)/C(=C1\COCCN1)C(=O)N2[C@H]1CCN(C(C)C)C1` [Compound 31], for which the 50% inhibitory concentration (IC50) amounted to 0.081 µM.

As to `O=C1/C(=C2/COCCN2)c2cc(NC3CCOCC3)ccc2N1C1CCOC1` (stereo not drawn) [Compound 32], the concentration for half-maximal inhibition (IC50) was found to be 0.031 µM.

As for `CC(C)Nc1ccc2c(c1)/C(=C1\COCC(C)N1)C(=O)N2C1CCOCC1` (stereo not drawn) [Compound 33], the IC50 came to 0.032 µM.

As to `CC(=O)N1CCC2(CC1)CN/C(=C1\C(=O)N(C(C)C)c3ccc(NC(C)C)cc31)CO2` [Compound 34], the half-maximal inhibitory concentration (IC50) turned out to be 0.048 µM.

Regarding `Nc1ccc2c(c1)/C(=C1\COCCN1)C(=O)N2C1CCOCC1` [Compound 35], the concentration for half-maximal inhibition (IC50) was 0.083 µM.

As for `CC(C)N1C(=O)/C(=C2/COCCN2)c2cc(NC3CCOCC3)ccc21` [Compound 36], the half-inhibitory concentration (IC50) turned out to be 0.15 µM.

With `CC(Nc1ccc2c(c1)/C(=C1\COCCN1)C(=O)N2C(C)C)C1CCC1` (stereo not drawn) [Compound 37], the half-maximal inhibitory concentration (IC50) was found to be 0.405 µM.

Consider `CC(C)N1C(=O)/C(=C2/COCCN2)c2cc(NC3CCN(C)CC3)ccc21` [Compound 38], for which the IC50 was 0.051 µM.

In the case of `CC(C)N1C(=O)/C(=C2/COCCN2)c2cc(NCC3CCOC3)ccc21` (stereo not drawn) [Compound 39], the IC50 was determined as 0.067 µM.

As to `CN1C(=O)/C(=C2/CCNCCN2)c2cc(N3CCCC3)ccc21` [Compound 40], the IC50 was 0.166 µM.

As to `CN(C)c1ccc2c(c1)/C(=C1\CCOCCN1)C(=O)N2C` [Compound 41], the IC50 turned out to be 0.052 µM.

For `CN(C)c1ccc2c(c1)/C(=C1\CCCN1)C(=O)N2C1CCOCC1` [Compound 42], the IC50 came out at 0.042 µM.

With `CNc1ccc2c(c1)/C(=C1\CCCN1)C(=O)N2C1CCOCC1` [Compound 43], the IC50 is 0.011 µM.

As for `CC(C)Nc1ccc2c(c1)/C(=C1\COCCN1)C(=O)N2C(C)C` [Compound 44], the concentration for half-maximal inhibition (IC50) was determined as 0.044 µM.

As to `CN1C(=O)/C(=C2/CCN(C3COC3)CCN2)c2cc(N3CCCC3)ccc21` [Compound 45], the IC50 came to 0.259 µM.

For `CC(C)Nc1ccc2c(c1)/C(=C1\CN(C(C)C)CCN1)C(=O)N2C1CCOCC1` [Compound 46], the IC50 turned out to be 0.086 µM.

On to `CC(C)Nc1ccc2c(c1)C(=C1CCOCC1)C(=O)N2C(C)C` [Compound 47], for which the half-maximal inhibitory concentration (IC50) turned out to be 0.153 µM.

With `CC(C)Nc1ccc2c(c1)/C(=C1\CCCN1C)C(=O)N2C1CCOCC1` [Compound 48], the concentration for half-maximal inhibition (IC50) stood at 0.122 µM.

On to `CN1CCC/C1=C1/C(=O)N(C2CCOCC2)c2ccc(NC3CCOC3)cc21` (stereo not drawn) [Compound 49], for which the 50% inhibitory concentration (IC50) came out at 0.282 µM.

On to `O=C1/C(=C2/COCCN2)c2cc(NC3CCCC3)ccc2N1C1COCCOC1` [Compound 50], for which the IC50 worked out at 0.195 µM.

Consider `O=C1/C(=C2/COCCN2)c2cc(NC3CCC3)ccc2N1C1COC1` [Compound 51], for which the IC50 worked out at 0.135 µM.

Consider `COCC(C)Nc1ccc2c(c1)/C(=C1\COCCN1)C(=O)N2C1CCOC1` (stereo not drawn) [Compound 52], for which the IC50 was determined as 0.061 µM.

Regarding `CC(=O)N1CCC2(CC1)CN/C(=C1\C(=O)N(C(C)C)c3ccc(N4CCCC4)cc31)CO2` [Compound 53], the half-inhibitory concentration (IC50) is 0.233 µM.

With `CCC(C)Nc1ccc2c(c1)/C(=C1\COCCN1)C(=O)N2C(C)C` (stereo not drawn) [Compound 54], the IC50 is 0.203 µM.

With `CC(C)N1C(=O)/C(=C2/COCCN2)c2cc(NC(C)C(C)(C)C)ccc21` (stereo not drawn) [Compound 55], the concentration for half-maximal inhibition (IC50) was 0.307 µM.

For the molecule `CC(Nc1ccc2c(c1)/C(=C1\COCCN1)C(=O)N2C(C)C)C1CCCC1` (stereo not drawn) [Compound 56], the IC50 is 0.159 µM.

With `CC(Nc1ccc2c(c1)/C(=C1\COCCN1)C(=O)N2C(C)C)c1cnccn1` (stereo not drawn) [Compound 57], the IC50 was 0.073 µM.

As for `CC(C)N1C(=O)/C(=C2/COCCN2)c2cc(NCC3CC3)ccc21` [Compound 58], the half-inhibitory concentration (IC50) worked out at 0.1 µM.

`CCC(C)Nc1ccc2c(c1)/C(=C1\COCCN1)C(=O)N2C1CCOCC1` (stereo not drawn) [Compound 59]: the IC50 worked out at 0.122 µM.

Consider `O=C1/C(=C2/COCCN2)c2cc(NC3CCCC3)ccc2N1C1CCOCC1` [Compound 60], for which the half-maximal inhibitory concentration (IC50) was found to be 0.245 µM.

Consider `CC(Nc1ccc2c(c1)/C(=C1\COCCN1)C(=O)N2C1CCOCC1)C1CCCC1` (stereo not drawn) [Compound 61], for which the 50% inhibitory concentration (IC50) amounted to 0.343 µM.

Turning to `CN(C)c1ccc2c(c1)/C(=C1\CCCCN1)C(=O)N2C` [Compound 62], the IC50 is 0.081 µM.

For `CC(C)Nc1ccc2c(c1)/C(=C1\COCCN1)C(=O)N2C` [Compound 63], the IC50 was determined as 0.022 µM.

For `CN1CCN/C(=C2\C(=O)N(C)c3ccc(N4CCCC4)cc32)CC1` [Compound 64], the IC50 came to 0.286 µM.

As for `O=C1/C(=C2/COCCN2)c2cc(NC3CCCC3)ccc2N1C1COC1` [Compound 65], the concentration for half-maximal inhibition (IC50) came to 0.194 µM.

Turning to `CC(C)C(C)Nc1ccc2c(c1)/C(=C1\COCCN1)C(=O)N2C1COC1` (stereo not drawn) [Compound 66], the IC50 turned out to be 0.169 µM.

For `CC(Nc1ccc2c(c1)/C(=C1\COCCN1)C(=O)N2C1COC1)C1CC1` (stereo not drawn) [Compound 67], the IC50 is 0.225 µM.

For `COCC(C)N1C(=O)/C(=C2/COCCN2)c2cc(N3CCCC3)ccc21` (stereo not drawn) [Compound 68], the IC50 is 0.624 µM.

With `CC(C)Nc1ccc2c(c1)/C(=C1\COCCN1)C(=O)N2[C@H]1CCN(C2COC2)C1` [Compound 69], the half-inhibitory concentration (IC50) was found to be 0.055 µM.

With `O=C1/C(=C2/CC3(CN2)COC3)c2cc(NC3CCOC3)ccc2N1C1CCOCC1` (stereo not drawn) [Compound 70], the half-inhibitory concentration (IC50) was 0.193 µM.

Consider `CC(Nc1ccc2c(c1)/C(=C1\COCCN1)C(=O)N2C(C)C)c1ccccn1` (stereo not drawn) [Compound 71], for which the IC50 was found to be 0.093 µM.

As for `CC(C)N1C(=O)/C(=C2/COCCN2)c2cc(NC3CCC(F)(F)CC3)ccc21` [Compound 72], the IC50 worked out at 0.14 µM.

With `CC(C)N1C(=O)/C(=C2/COCCN2)c2cc(NC3CCOCC3F)ccc21` (stereo not drawn) [Compound 73], the IC50 is 0.066 µM.

For `CC(C)N1C(=O)/C(=C2/COCCN2)c2cc(NCc3cc[nH]n3)ccc21` [Compound 74], the half-inhibitory concentration (IC50) is 0.046 µM.

Consider `CC(C)N1C(=O)/C(=C2/COCCN2)c2cc(NCC3CCOCC3)ccc21` [Compound 75], for which the half-inhibitory concentration (IC50) came out at 0.072 µM.

Consider `CCC(CC)Nc1ccc2c(c1)/C(=C1\COCCN1)C(=O)N2C1CCOCC1` [Compound 76], for which the 50% inhibitory concentration (IC50) was found to be 0.043 µM.

`CC(Nc1ccc2c(c1)/C(=C1\COCCN1)C(=O)N2C1CCOCC1)c1ccccn1` (stereo not drawn) [Compound 77]: the IC50 is 0.022 µM.

With `O=C1/C(=C2/COCCN2)c2cc(NC3CCC(F)(F)CC3)ccc2N1C1CCOCC1` [Compound 78], the IC50 was 0.089 µM.

For the molecule `CC(Nc1ccc2c(c1)/C(=C1\COCCN1)C(=O)N2C1CCOCC1)c1ccnn1C` (stereo not drawn) [Compound 79], the half-maximal inhibitory concentration (IC50) came to 0.02 µM.

Consider `O=C1/C(=C2/COCCN2)c2cc(NC3CCOCC3F)ccc2N1C1CCOCC1` (stereo not drawn) [Compound 80], for which the IC50 turned out to be 0.084 µM.

For the molecule `O=C1/C(=C2/COCCN2)c2cc(NCC3CCOCC3)ccc2N1C1CCOCC1` [Compound 81], the IC50 was 0.13 µM.

As to `CC(C)Nc1ccc2c(c1)/C(=C1\CCOCCN1)C(=O)N2C(C)C` [Compound 82], the IC50 worked out at 0.091 µM.

On to `Nc1ccc2c(c1)/C(=C1\CCCN1)C(=O)N2C1CCOCC1` [Compound 83], for which the concentration for half-maximal inhibition (IC50) is 0.011 µM.
